Results published in article PMC9481103 (2022).

Experiments:
Test in all cases: in-line probing
Conditions in all cases: 20 mM MgCl2, 100 mM KCl, 50 mM Tris-HCl pH 8.3, 28 °C, 42-48 h, apparent
[1] = tested on: aptamer 1 (c-di-GMP-I riboswitch aptamer, cluster 1) (RNA, riboswitch) GUCGUGAACAAGCCACACCCCGGGCGACCGGGGGCCGGAAAGCCGCGGGUCUCAGCAGAGACGGCCGGGUUGCCACCAGGC
[2] = tested on: aptamer 2 (c-di-GMP-I riboswitch aptamer, cluster 2) (RNA, riboswitch) GUCGUGAAGAAGCCACACCCCGGGCGACCGGGGGCCGGAAAGCCGCGGGUCUCAGCAGAGACGGCCGGGUUGCCACCAGAC
[3] = tested on: aptamer 3 (c-AMP-GMP riboswitch aptamer, cluster 3) (RNA, riboswitch) GCCGUGAAAAAACCACACCUCGGGCGACCGGGGGCCGGAAAGCCGCGGGUCUCAAAGGAGAUGGCCGGGUUGCCAGAAGGC

Compound | KD ([1]; Hill coefficient fixed at 1) | KD ([2]; Hill coefficient fixed at 1) | KD ([3]; Hill coefficient fixed at 1) | KD ([1]; Hill coefficient fixed at 1, micro sign lost in text layer ("34 M")) | KD ([2]; Hill coefficient fixed at 1, micro sign lost in text layer ("25 M")) | KD ([3]; Hill coefficient fixed at 1, micro sign lost in text layer ("1 M"))
Nc1nc2c(ncn2[C@@H]2O[C@@H]3COP(=O)(O)O[C@H]4[C@@H](O)[C@H](n5cnc6c(=O)[nH]c(N)nc65)O[C@@H]4COP(=O)(O)O[C@H]3[C@H]2O)c(=O)[nH]1 | ~ 20 nM | ~ 77 nM | ~ 100 nM |  |  | 
Nc1nc2c(ncn2[C@@H]2O[C@@H]3COP(=O)(O)O[C@H]4[C@@H](O)[C@H](n5cnc6c(N)ncnc65)O[C@@H]4COP(=O)(O)O[C@H]3[C@H]2O)c(=O)[nH]1 |  |  |  | ~ 34 µM | ~ 25 µM | ~ 1 µM
